Results taken from US9073975B2, “Cyclic peptides, their preparation and their use as inhibitors of the platelet adhesion” (SANOFI, priority 2010, dated 2015).
Starred links: 1 amine or outer side, 2 acyl side, 3 side chain; linkers in the order of their positions; H or OH if unused. Non-standard residues stand in square brackets, D forms with d. Residues, ends and D or L forms follow the SMILES beside them. NH(CH2)9CO = O=C(CCCCCCCCCN[*:1])[*:2]; Dap = NC[C@H](N)C(=O)O; Ac3c = NC1(C(=O)O)CC1; Aib = CC(C)(N)C(=O)O; Ahp = NCCCCCCC(=O)O; Ava = NCCCCC(=O)O; GABA = NCCCC(=O)O

Biological target: T1, recombinant human vWF-A1 domain (Homo sapiens, UniProt P07359)
T1 construct: whole blood drawn from voluntary donors; made in house; host or cells: E. coli (vWF-A1); washed platelets from human donor blood (GPIb, endogenous)
Assay: Static human platelet adhesion to recombinant human vWF-A1 domain
Assay type: cell-based
Conditions: washed calcein AM labeled human platelets, static conditions, 1.5 h adhesion; read-out: Activity (IC50 for inhibition of the binding of platelets to vWF A1 domain)
Experimental: The activity of compounds of the formula I can be shown by procedures known in the art, for example by determining their inhibition of the binding of platelets to vWF A1 domain in an appropriate assay. To this end, assay plates can be coated with vWF-A1 domain. […] Then fluorescence-labeled thrombocytes are added and incubated for 90 minutes. In a complex washing procedure all non-bound thrombocytes are removed and the plates are measured, for example in a laser-based reader Acumen Explorer or a bulk reader like Spectramax. […] To assess the effect of compounds on the interaction of the GPIb complex on platelets with vWF, an assay system was used measuring binding of human platelets to recombinant human vWF-A1 domain under static conditions in the presence and absence of the compounds. […] Platelet rich plasma was carefully removed, transferred to a fresh container and spun down for 15 min at 120 g. Platelet rich plasma was carefully transferred again to fresh containers, PGE1 (0.5 μg/ml, Sigma) was added and the suspension was allowed to rest for 5 min. This was followed by another centrifugation step for 15 min at 360 g. The supernatant was discarded and the cell pellets were carefully resuspended in tyrode buffer (NaCl, 137 mM (Sigma S-3014); KCl, 2.7 mM (Sigma P-9541); NaHCO3,12 mM ([…] 31437); NaH2PO4×2H2O, 0.36 mM (Merck 6345); […] After 5 min of resting the suspension was spun down for 15 min at 300 g. The supernatant was discarded and the pellets were carefully resuspended in TBS buffer (Tris-HCl, 50 mM (Fluka 93371); NaCl, 120 mM (Sigma S-3014); KCl, 2.7 mM (Sigma P-9541); CaCl2, 0.05 mM (Sigma C-3306); MgCl2×6 H2O, 2 mM (Sigma M-2670); […] The platelet count was adjusted to 2×10^5 cells/μl, and the suspensions from individual donors were pooled at this stage. The platelets were allowed to rest for 30 min at room temperature before calcein AM (2.5 μM per 2×10^5 cells/μl (Molecular Probes C-3099)) was added. This was followed by 15 min incubation in the dark. Cells were diluted to 5×10^4 cells/μl and ReoPro (3 μg/ml (Centocor B. V., Leiden, N L)) was added, followed by a 10 min incubation period in the dark before adding the platelets to the assay plates. 96 well plates (Greiner hb, black, clear bottom, F, 655097) were coated with human recombinant vWF-A1 domain (1.5 μg/well, AA 475-706, expressed in E. coli) in Tris buffer (pH 7.4; Tris-HCl, 25 mM; NaCl, 150 mM) and incubated for 1 h at room temperature. After washing the wells 3× with TBS, blocking buffer (TBS with 5% BSA) was added followed by an incubation for 1 h. The wells were washed again 3× with TBS before 200 μl TBS were added to each well, preventing them from drying out. TBS was flicked out and serial dilutions of the test compound were added. The washed and calcein AM labeled thrombocytes were added to the wells (2.5×10^6 cells/well). Following an adhesion period of 1.5 h in the dark the wells were washed 3× with TBS. Measurement of fluorescence per well was performed in a SpectraMax M5 reader (Molecular Devices). From the raw data % inhibition and IC50 values were calculated.

T1 sequence (P07359 17-652): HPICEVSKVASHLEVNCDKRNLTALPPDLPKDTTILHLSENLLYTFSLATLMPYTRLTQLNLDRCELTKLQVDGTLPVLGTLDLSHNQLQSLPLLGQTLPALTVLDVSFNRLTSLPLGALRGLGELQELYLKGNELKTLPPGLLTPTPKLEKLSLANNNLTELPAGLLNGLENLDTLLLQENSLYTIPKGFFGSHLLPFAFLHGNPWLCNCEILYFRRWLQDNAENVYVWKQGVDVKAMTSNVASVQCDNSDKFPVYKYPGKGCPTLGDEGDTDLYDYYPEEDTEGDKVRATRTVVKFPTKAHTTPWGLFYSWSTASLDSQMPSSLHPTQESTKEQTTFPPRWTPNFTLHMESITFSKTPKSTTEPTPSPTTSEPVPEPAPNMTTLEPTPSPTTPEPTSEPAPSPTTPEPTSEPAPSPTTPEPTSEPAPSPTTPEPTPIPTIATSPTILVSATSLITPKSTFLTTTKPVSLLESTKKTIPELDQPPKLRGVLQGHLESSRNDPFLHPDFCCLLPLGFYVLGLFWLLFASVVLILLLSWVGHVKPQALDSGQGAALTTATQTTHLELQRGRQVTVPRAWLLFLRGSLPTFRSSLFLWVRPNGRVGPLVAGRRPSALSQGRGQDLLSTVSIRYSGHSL
T1 sequence (P13224 26-206 partner): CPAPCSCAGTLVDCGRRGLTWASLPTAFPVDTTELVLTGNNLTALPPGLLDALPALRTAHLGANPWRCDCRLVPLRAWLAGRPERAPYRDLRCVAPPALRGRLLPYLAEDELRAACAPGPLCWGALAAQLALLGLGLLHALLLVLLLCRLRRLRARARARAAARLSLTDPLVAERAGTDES
T1 sequence (P14770 17-177 partner): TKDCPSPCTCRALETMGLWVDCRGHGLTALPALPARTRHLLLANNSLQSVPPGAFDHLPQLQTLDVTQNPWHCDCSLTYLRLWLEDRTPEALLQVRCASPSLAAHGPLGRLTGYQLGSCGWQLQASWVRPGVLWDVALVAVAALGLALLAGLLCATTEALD

Work on `COC[C@@H]1NC(=O)[C@H](CCCNC(=N)N)NC(=O)[C@H](CCC(=O)O)NC(=O)[C@H]([C@@H](C)O)NC(=O)CCCCCCNC(=O)[C@H](CC(C)C)NC(=O)[C@H](CC(N)=O)NC(=O)[C@H](Cc2c[nH]cn2)NC(=O)[C@H](CC(C)C)NC(=O)[C@H](C)NC1=O` [Example 45, Cyclo[Leu-His-Asn-Leu-NH—(CH2)6—CO-Thr-Glu-Arg-Amp-Ala]] (cyclo(ALHNL[Ahp]TERS(Me))) yielded an IC50 of under 1000 nM.
With `CSCC[C@@H]1NC(=O)[C@H](CCCNC(=N)N)NC(=O)[C@H](CCC(=O)O)NC(=O)[C@H]([C@@H](C)O)NC(=O)CCCCNC(=O)CNC(=O)[C@H](CC(C)C)NC(=O)[C@H](CC(N)=O)NC(=O)[C@H](Cc2c[nH]cn2)NC(=O)[C@H](CC(C)C)NC(=O)[C@H](C)NC1=O` [Example 46, Cyclo[Leu-His-Asn-Leu-Gly-NH—(CH2)4—CO-Thr-Glu-Arg-Met-Ala]] (cyclo(ALHNLG[Ava]TERM)) the IC50 was 1000 to 10000 nM.
For `CSCC[C@@H]1NC(=O)[C@H](CCCNC(=N)N)NC(=O)[C@H](CCC(=O)O)NC(=O)[C@H]([C@@H](C)O)NC(=O)CCCCCCCCCNC(=O)[C@H](CC(C)C)NC(=O)[C@H](CC(N)=O)NC(=O)[C@H](Cc2c[nH]cn2)NC(=O)[C@H](CC(C)C)NC(=O)[C@H](C)NC1=O` [Example 47, Cyclo[Leu-His-Asn-Leu-NH—(CH2)9—CO-Thr-Glu-Arg-Met-Ala]] (cyclo(ALHNL[NH(CH2)9CO]TERM)), the IC50 was 1000 to 10000 nM.
`CSCC[C@@H]1NC(=O)[C@H](CCCNC(=N)N)NC(=O)[C@H](CCC(=O)O)NC(=O)[C@H]([C@@H](C)O)NC(=O)CCCNC(=O)[C@H](CN)NC(=O)[C@H](CC(C)C)NC(=O)[C@H](CC(N)=O)NC(=O)[C@H](Cc2c[nH]cn2)NC(=O)[C@H](CC(C)C)NC(=O)[C@H](C)NC1=O` [Example 49, Cyclo[Leu-His-Asn-Leu-Dpr-NH—(CH2)3—CO-Thr-Glu-Arg-Met-Ala]] (cyclo(ALHNL[Dap][GABA]TERM)) showed an IC50 of 1000 to 10000 nM.
For `CSCC[C@@H]1NC(=O)[C@H](CCCNC(=N)N)NC(=O)[C@H](CCC(=O)O)NC(=O)[C@H]([C@@H](C)O)NC(=O)[C@H](CC(N)=O)NC(=O)CCCNC(=O)[C@H](CC(C)C)NC(=O)[C@H](CC(N)=O)NC(=O)[C@H](Cc2c[nH]cn2)NC(=O)[C@H](CC(C)C)NC(=O)[C@H](C)NC1=O` [Example 50, Cyclo[Leu-His-Asn-Leu-NH—(CH2)3—CO-Asn-Thr-Glu-Arg-Met-Ala]] (cyclo(ALHNL[GABA]NTERM)), the IC50 was 1000 to 10000 nM.
For `CSCC[C@@H]1NC(=O)[C@H](CCCNC(=N)N)NC(=O)[C@H](CCC(=O)O)NC(=O)[C@H]([C@@H](C)O)NC(=O)C(C)(C)NC(=O)CCCNC(=O)[C@H](CC(C)C)NC(=O)[C@H](CC(N)=O)NC(=O)[C@H](Cc2c[nH]cn2)NC(=O)[C@H](CC(C)C)NC(=O)[C@H](C)NC1=O` [Example 53, Cyclo[Leu-His-Asn-Leu-NH—(CH2)3—CO-Aib-Thr-Glu-Arg-Met-Ala]] (cyclo(ALHNL[GABA][Aib]TERM)), the IC50 was 1000 to 10000 nM.
For `CSCC[C@@H]1NC(=O)[C@H](CCCNC(=N)N)NC(=O)[C@H](CCC(=O)O)NC(=O)[C@H]([C@@H](C)O)NC(=O)C2(CC2)NC(=O)CCCNC(=O)[C@H](CC(C)C)NC(=O)[C@H](CC(N)=O)NC(=O)[C@H](Cc2c[nH]cn2)NC(=O)[C@H](CC(C)C)NC(=O)[C@H](C)NC1=O` [Example 54, Cyclo[Leu-His-Asn-Leu-NH—(CH2)3—CO-Ac3-Thr-Glu-Arg-Met-Ala]] (cyclo(ALHNL[GABA][Ac3c]TERM)), the IC50 was 1000 to 10000 nM.
`CSCC[C@@H]1NC(=O)[C@H](CCCNC(=N)N)NC(=O)[C@H](CCC(=O)O)NC(=O)[C@H]([C@@H](C)O)NC(=O)CCCCCCNC(=O)[C@H](CC(C)C)NC(=O)[C@H](CC(N)=O)NC(=O)[C@H](Cc2c[nH]cn2)NC(=O)[C@H](CC(C)C)NC(=O)[C@H](CCC(N)=O)NC1=O` [Example 55, Cyclo[Leu-His-Asn-Leu-NH—(CH2)6—CO-Thr-Glu-Arg-Met-Gln]] (cyclo([Ahp]TERMQLHNL)) gave an IC50 of 1000 to 10000 nM.
